# Measurements reported in patent publication US20260183405A1, “SMALL MOLECULE-DRUG-CONJUGATES CLEAVABLE IN A TUMOR MICROENVIRONMENT” (priority 2022, published 2026).
# Like-named read-outs stand apart in the source and are kept apart here.
# Key:
# in vitro = conditions: human, Caco-2
# Method: (§1) Caco-2: The cell permeability of a substance can be investigated by means of in vitro testing in a flux assay using Caco-2 cells [M. D. Troutman and D. R. Thakker, Pharm. Res. 20 (8), 1210-1224 (2003)]. For this purpose, the cells were cultured for 15-16 days on 24-well filter plates. For the determination of permeation, the respective test substance was applied in a HEPES buffer to the cells either apically (A) or basally (B) and incubated for 2 hours. After 0 hours and after 2 hours, samples were taken from the cis and trans compartments. The samples were separated by HPLC (Agilent 1200, Böblingen, Germany) using reverse phase columns. The HPLC system was coupled via a Turbo Ion Spray Interface to a Triple Quadropol mass spectrometer API 4000 (AB SCIEX Deutschland GmbH, Darmstadt, Germany). The permeability was evaluated on the basis of a Papp value, which was calculated using the formula published by Schwab et al. [D. Schwab et al., J. Med. Chem. 46, 1716-1725 (2003)]. A substance was classified as actively transported when the ratio of Papp (B-A) to Papp (A-B) (efflux ratio) was >2 or <0.5. […] In Table 2, reference compounds are provided for comparison.
# 786-O = assay: Cytotoxicity in vitro in the presence and absence of elastase (MTT assay); type: cell-based; conditions: 786-O cells, 72 h incubation
# Method: (§2) Cultivation of cells was performed according to standard procedures with the media recommended by the provider. The cells, in a total volume of 100 μL, were seeded in a 96-well plate with a white bottom (#3610). After a 24 h incubation period at 37° C. and 5% CO2, the medium was exchanged by adding 90 μL fresh medium. The treatment started by adding the test compound in 10 μL of culture medium to the cells in triplicates. Concentrations ranging from 10^−5 M to 10^−13 M were chosen. Two identically treated sets of samples were prepared. One set was treated with the test compound alone, whereas to the second set the compound and 10 nM elastase (NE) was added followed by a 72 h incubation period at 37° C. and 5% CO2. The proliferation was detected using the MTT assay (ATCC). At the end of the incubation period the MTT reagent was added to all samples for 4h. Lysis of the cells followed by addition of the detergent was done overnight. The formed dye was detected at 570 nm. The proliferation of untreated but otherwise identically handled cells was defined as the 100% value. The dose response curves allowed the determination of the respective IC50 values. […]
# HT29 = assay: as above; type: cell-based; conditions: HT29 cells, 72 h incubation
# Method: as §2
# NCI-H292 = assay: as above; type: cell-based; conditions: NCI-H292 cells, 72 h incubation
# Method: as §2
# SUM149PT = assay: as above; type: cell-based; conditions: SUM149PT cells, 72 h incubation
# Method: as §2
# [1] = Pharmacokinetics in rat after intravenous administration; type: in vivo; conditions: plasma, male rats, intravenous bolus 0.5 mg/kg
# Method: Male rats (n=3) were given an intravenous 0.5 mg/kg bolus dose of test article dissolved in plasma with 1% DMSO and 2% ethanol. Serial blood samples were collected up to 24 hours post-dose. Plasma was harvested from blood samples and stored frozen until sample analysis. Test article plasma concentrations were analyzed by LC/MS/MS. Pharmacokinetic parameters were calculated using non-compartmental analysis.
# Caco-2 cells = assay: Caco-2 flux assay for cellular permeability; conditions: for Caco-2 Flux Papp A-B [nm/s]: Caco-2 cells, apical to basal, 2 hours incubation; for Caco-2 Flux Efflux ratio: ratio Papp (B-A) to Papp (A-B), actively transported when >2 or <0.5, 0.5-2 not actively transported
# Method: as §1
# [2] = compound alone, read-out: IC50 without neutrophil elastase
# [3] = with 10 nM elastase (NE), read-out: IC50 with neutrophil elastase
Compound,IC50 (786-O; [2]),IC50 (786-O; [3]),IC50 (HT29; [2]),IC50 (HT29; [3]),IC50 (NCI-H292; [2]),IC50 (NCI-H292; [3]),IC50 (SUM149PT; [2]),IC50 (SUM149PT; [3]),also measured
COC(=O)[C@@H](N)CCN(C(=O)CO)[C@@H](c1cc(-c2cc(F)ccc2F)cn1Cc1ccccc1)C(C)(C)C,–,–,–,–,–,–,–,–,Papp A→B at 2 h (in vitro): 1 to 9.9 ×10⁻⁶ cm/s; efflux ratio at 2 h (in vitro): > 2
CC(C)(C)[C@H](c1cc(-c2cc(F)ccc2F)cn1Cc1ccccc1)N(CCCN)C(=O)CO,–,–,–,–,–,–,–,–,Papp A→B at 2 h (in vitro): 0.1 to 0.9 ×10⁻⁶ cm/s; efflux ratio at 2 h (in vitro): > 2
CC(C)(C)[C@H](c1cc(-c2cc(F)ccc2F)cn1Cc1ccccc1)N(CCC(N)C(F)F)C(=O)CO (some centres unmarked),–,–,–,–,–,–,–,–,Papp A→B at 2 h (in vitro): 10 to 99.9 ×10⁻⁶ cm/s; efflux ratio at 2 h (in vitro): 0.5 to 2
CCc1c2c(nc3ccccc13)-c1cc3c(c(=O)n1C2)COC(=O)[C@]3(O)CC,–,–,–,–,–,–,–,–,Papp A→B at 2 h (in vitro): 10 to 99.9 ×10⁻⁶ cm/s; efflux ratio at 2 h (in vitro): 0.5 to 2
CCCNC(=O)Nc1cccc(S(=O)(=O)Nc2cccc([C@@H](CC(=O)O)NC(=O)Nc3ccc(NC(=O)NCCOCCOCCOCCC(=O)NCCCC[C@H](NC(=O)CCOCCOCCOCCNC(=O)Nc4ccc(NC(=O)N[C@H](CC(=O)O)c5cccc(NS(=O)(=O)c6cccc(NC(=O)NCCC)c6)c5)cc4)C(=O)NCCOCCOCCOCCC(=O)N[C@@H](CC(=O)O)C(=O)N4CCC[C@H]4C(=O)N[C@H](C(=O)O[C@@H](c4ccccc4)[C@@H](C)NC(=O)[C@H](C)[C@@H](OC)[C@@H]4CCCN4C(=O)C[C@@H](OC)[C@H]([C@@H](C)CC)N(C)C(=O)[C@@H](NC(=O)[C@@H](NC)C(C)C)C(C)C)C(C)C)cc3)c2)c1 [Compound 14],100 to 999 nM,1 to 9.9 nM,100 to 999 nM,0.1 to 1 nM,10 to 99 nM,0.1 to 1 nM,10 to 99 nM,0.1 to 1 nM,AUC [1]: 100 to 500 µg·h/mL; half-life [1]: 10 to 40 h; clearance ([1]; read-out: CL plasma): 0.02 to 0.5 mL/min/kg; Vd ([1]; read-out: VSS): 0.1 to 0.3 L/kg
"CCCNC(=O)Nc1cccc(S(=O)(=O)Nc2cccc([C@@H](CC(=O)O)NC(=O)Nc3ccc(NC(=O)NCCOCCOCCOCCC(=O)N[C@@H](CC(N)=O)C(=O)N4CCC[C@H]4C(=O)N[C@H](C(=O)N[C@@H](CCN(C(=O)CO)[C@@H](c4cc(-c5cc(F)ccc5F)cn4Cc4ccccc4)C(C)(C)C)C(=O)NC)C(C)C)cc3)c2)c1 [Compound 19, sodium N^2-(14-{4-[({(1R)-2-carboxylato-1-[3-({3-[(propylcarbamoyl)amino]benzene-1-sulfonyl}amino)phenyl]ethyl}carbamoyl)amino]anilino}-14-oxo-4,7,10-trioxa-13-azatetradecanan-1-oyl)-L-asparaginyl-L-prolyl-N-[(2S)-4-[{(1R)-1-[1-benzyl-4-(2,5-difluorophenyl)-1H-pyrrol-2-yl]-2,2-dimethylpropyl}(hydroxyacetyl)amino]-1-(methylamino)-1-oxobutan-2-yl]-L-valinamide]",> 1000 nM,1 to 9.9 nM,> 1000 nM,1 to 9.9 nM,> 1000 nM,0.1 to 1 nM,> 1000 nM,0.1 to 1 nM,–
"CCc1c2c(nc3ccccc13)-c1cc3c(c(=O)n1C2)COC(=O)[C@@]3(CC)OC(=O)[C@@H](NC(=O)[C@@H]1CCCN1C(=O)[C@H](CC(=O)O)NC(=O)CCOCCOCCOCCNC(=O)NC[C@H](NC(=O)CCCCNc1cc(C)ccn1)C(=O)N[C@@H](CC(=O)O)c1cc(Cl)cc(Cl)c1)C(C)C [Compound 29, disodium (4S)-4,11-diethyl-3,14-dioxo-3,4,12,14-tetrahydro-1H-pyrano[3′,4′:6,7]indolizino[1,2-b]quinolin-4-yl 1-{(2S,20S)-20-{[(1S)-2-carboxylato-1-(3,5-dichlorophenyl)ethyl]carbamoyl}-2-(carboxylatomethyl)-26-[(4-methylpyridin-2-yl)amino]-4,17,22-trioxo-7,10,13-trioxa-3,16,18,21-tetraazahexacosanan-1-oyl}-L-prolyl-L-valinate]",100 to 999 nM,1 to 9.9 nM,> 1000 nM,10 to 99 nM,100 to 999 nM,1 to 9.9 nM,100 to 999 nM,1 to 9.9 nM,–
CCCNC(=O)Nc1cccc(S(=O)(=O)Nc2cccc([C@@H](CC(=O)O)NC(=O)Nc3ccc(NC(=O)NCCOCCOCCOCCC(=O)N[C@@H](CC(=O)O)C(=O)N4CCC[C@H]4C(=O)N[C@H](C(=O)OCCCNC(=O)[C@H](Cc4ccccc4)NC(=O)[C@H](C)[C@@H](OC)[C@@H]4CCCN4C(=O)C[C@@H](OC)[C@H]([C@@H](C)CC)N(C)C(=O)[C@@H](NC(=O)[C@H](C(C)C)N(C)C)C(C)C)C(C)C)cc3)c2)c1 [Compound 30],100 to 999 nM,10 to 99 nM,100 to 999 nM,1 to 9.9 nM,10 to 99 nM,1 to 9.9 nM,10 to 99 nM,1 to 9.9 nM,–
CCCNC(=O)Nc1cccc(S(=O)(=O)Nc2cccc([C@@H](CC(=O)O)NC(=O)Nc3ccc(NC(=O)NCCOCCOCCOCCC(=O)N[C@@H](CC(=O)O)C(=O)N4CCC[C@H]4C(=O)N[C@H](C(=O)NCCC(C)(C)C(=O)OCCCNC(=O)[C@H](Cc4ccccc4)NC(=O)[C@H](C)[C@@H](OC)[C@@H]4CCCN4C(=O)C[C@@H](OC)[C@H]([C@@H](C)CC)N(C)C(=O)[C@@H](NC(=O)[C@H](C(C)C)N(C)C)C(C)C)C(C)C)cc3)c2)c1 [Compound 31],100 to 999 nM,10 to 99 nM,10 to 99 nM,0.1 to 1 nM,10 to 99 nM,0.1 to 1 nM,10 to 99 nM,0.1 to 1 nM,–
CCCNC(=O)Nc1cccc(S(=O)(=O)Nc2cccc([C@@H](CC(=O)O)NC(=O)Nc3ccc(NC(=O)NCCOCCOCCOCCC(=O)N[C@@H](CC(=O)O)C(=O)N4CCC[C@H]4C(=O)N[C@H](C(=O)OC(C)(C)CCNC(=O)[C@H](Cc4ccccc4)NC(=O)[C@H](C)[C@@H](OC)[C@@H]4CCCN4C(=O)C[C@@H](OC)[C@H]([C@@H](C)CC)N(C)C(=O)[C@@H](NC(=O)[C@H](C(C)C)N(C)C)C(C)C)C(C)C)cc3)c2)c1 [Compound 32],100 to 999 nM,10 to 99 nM,10 to 99 nM,1 to 9.9 nM,10 to 99 nM,1 to 9.9 nM,10 to 99 nM,1 to 9.9 nM,–
"CC[C@@]1(O)C(=O)OCc2c1cc1n(c2=O)Cc2c-1nc1cc(F)c(C)c3c1c2[C@@H](NC(=O)CO)CC3 [Ref 2, DXd, reference compound]",–,–,–,–,–,–,–,–,Caco-2 Flux Papp A-B [nm/s] (Caco-2 cells): AA (AA = 1-9 nm/s); Caco-2 Flux Efflux ratio (Caco-2 cells): A (A = actively transported)
"CC[C@@]1(O)C(=O)OCc2c1cc1n(c2=O)Cc2cc3cc4c(cc3nc2-1)OCO4 [Ref 3, 10,11-methylenedioxy-camptothecin, reference compound]",–,–,–,–,–,–,–,–,Caco-2 Flux Papp A-B [nm/s] (Caco-2 cells): CC (CC = 100-999 nm/s); Caco-2 Flux Efflux ratio (Caco-2 cells): B (B = not actively transported)
"N2-(14-{4-[({(1R)-2-carboxy-1-[3-({3-[(propylcarbamoyl)amino]benzene-1-sulfonyl}amino)phenyl]ethyl}carbamoyl)amino]anilino}-14-oxo-4,7,10-trioxa-13-azatetradecanan-1-oyl}-L-asparaginyl-L-prolyl-N-{3-[{(1R)-1-[1-benzyl-4-(2,5-difluorophenyl)-1H-pyrrol-2-yl]-2,2-dimethylpropyl}(hydroxyacetyl)amino]propyl}-L-alaninamide [Compound 15]",> 1000 nM,10 to 99 nM,100 to 999 nM,1 to 9.9 nM,100 to 999 nM,10 to 99 nM,10 to 99 nM,1 to 9.9 nM,–
"exatecan mesylate [Ref 1, reference compound]",–,–,–,–,–,–,–,–,Caco-2 Flux Papp A-B [nm/s] (Caco-2 cells): CC (CC = 100-999 nm/s); Caco-2 Flux Efflux ratio (Caco-2 cells): B (B = not actively transported)
